In ChEMBL document CHEMBL4004838, “Design and synthesis of novel phenyl -1, 4-beta-carboline-hybrid molecules as potential anticancer agents” (Eur J Med Chem, 2017):

Tests used:
Format in all cases: functional
SK-MEL-28 = assay: Growth inhibition of human SK-MEL-28 cells assessed as cell growth at 0.1 uM incubated for 48 hrs by sulforhodamine B assay relative to control; settings: SK-MEL-28, 48 h, read-out: Activity
IGROV-1 = assay: Growth inhibition of human IGROV1 cells assessed as cell growth at 0.1 uM incubated for 48 hrs by sulforhodamine B assay relative to control; settings: IGROV-1, 48 h, read-out: Activity
HT-29 = assay: Growth inhibition of human HT-29 cells assessed as cell growth at 0.1 uM incubated for 48 hrs by sulforhodamine B assay relative to control; settings: HT-29, 48 h, read-out: Activity
A549 = assay: Growth inhibition of human A549/ATCC cells assessed as cell growth at 1 uM incubated for 48 hrs by sulforhodamine B assay relative to control; settings: A549, 48 h, read-out: Activity
PC-3 = assay: Growth inhibition of human PC3 cells assessed as cell growth at 1 uM incubated for 48 hrs by sulforhodamine B assay relative to control; settings: PC-3, 48 h, read-out: Activity
EKVX [1] = assay: Growth inhibition of human EKVX cells assessed as cell growth at 100 uM incubated for 48 hrs by sulforhodamine B assay relative to control; settings: read-out: Activity
EKVX [2] = assay: Growth inhibition of human EKVX cells assessed as cell growth at 0.1 uM incubated for 48 hrs by sulforhodamine B assay relative to control; settings: read-out: Activity
NCI-H23 = assay: Growth inhibition of human NCI-H23 cells assessed as cell growth at 0.01 uM incubated for 48 hrs by sulforhodamine B assay relative to control; settings: NCI-H23, 48 h, read-out: Activity
DU-145 = assay: Growth inhibition of human DU145 cells incubated for 48 hrs by sulforhodamine B assay; settings: DU-145, 48 h; for TGI: read-out: pTGI (converted)
LOX IMVI = assay: Growth inhibition of human LOXIMVI cells assessed as cell growth at 0.1 uM incubated for 48 hrs by sulforhodamine B assay relative to control; settings: read-out: Activity
NCI-H460 [3] = assay: Growth inhibition of human NCI-H460 cells assessed as cell growth at 0.1 uM incubated for 48 hrs by sulforhodamine B assay relative to control; settings: NCI-H460, 48 h, read-out: Activity
UACC-62 = assay: Growth inhibition of human UACC62 cells assessed as cell growth at 100 uM incubated for 48 hrs by sulforhodamine B assay relative to control; settings: UACC-62, 48 h, read-out: Activity
COLO 205 = assay: Growth inhibition of human COLO205 cells incubated for 48 hrs by sulforhodamine B assay; settings: COLO 205, 48 h
MDA-MB-231 = assay: Growth inhibition of human MDA-MB-231 cells assessed as cell growth at 0.01 uM incubated for 48 hrs by sulforhodamine B assay relative to control; settings: MDA-MB-231, 48 h, read-out: Activity
MDA-MB-435 [4] = assay: Growth inhibition of human MDA-MB-435 cells assessed as cell growth at 0.01 uM incubated for 48 hrs by sulforhodamine B assay relative to control; settings: MDA-MB-435, 48 h, read-out: Activity
SK-OV-3 = assay: Growth inhibition of human SKOV3 cells assessed as cell growth at 0.01 uM incubated for 48 hrs by sulforhodamine B assay relative to control; settings: SK-OV-3, 48 h, read-out: Activity
TK-10 = assay: Growth inhibition of human TK10 cells assessed as cell growth at 0.1 uM incubated for 48 hrs by sulforhodamine B assay relative to control; settings: TK-10, 48 h, read-out: Activity
M14 = assay: Growth inhibition of human M14 cells assessed as cell growth at 0.01 uM incubated for 48 hrs by sulforhodamine B assay relative to control; settings: M14, 48 h, read-out: Activity
SNB-19 = assay: Growth inhibition of human SNB19 cells incubated for 48 hrs by sulforhodamine B assay; settings: SNB-19, 48 h
NCI-H460 [5] = assay: Growth inhibition of human NCI-H460 cells assessed as cell growth at 100 uM incubated for 48 hrs by sulforhodamine B assay relative to control; settings: NCI-H460, 48 h, read-out: Activity
KM12 [6] = assay: Growth inhibition of human KM12 cells assessed as cell growth at 100 uM incubated for 48 hrs by sulforhodamine B assay relative to control; settings: KM12, 48 h, read-out: Activity
OVCAR-5 = assay: Growth inhibition of human OVCAR5 cells assessed as cell growth at 0.1 uM incubated for 48 hrs by sulforhodamine B assay relative to control; settings: OVCAR-5, 48 h, read-out: Activity
A498 [7] = assay: Growth inhibition of human A498 cells assessed as cell growth at 100 uM incubated for 48 hrs by sulforhodamine B assay relative to control; settings: A498, 48 h, read-out: Activity
A498 [8] = assay: Growth inhibition of human A498 cells assessed as cell growth at 0.01 uM incubated for 48 hrs by sulforhodamine B assay relative to control; settings: A498, 48 h, read-out: Activity
MDA-MB-435 [9] = assay: Growth inhibition of human MDA-MB-435 cells incubated for 48 hrs by sulforhodamine B assay; settings: MDA-MB-435, 48 h
HCC 2998 = assay: Growth inhibition of human HCC2998 cells assessed as cell growth at 1 uM incubated for 48 hrs by sulforhodamine B assay relative to control; settings: HCC 2998, 48 h, read-out: Activity
HCT-15 = assay: Growth inhibition of human HCT15 cells assessed as cell growth at 0.1 uM incubated for 48 hrs by sulforhodamine B assay relative to control; settings: HCT-15, 48 h, read-out: Activity
KM12 [10] = assay: Growth inhibition of human KM12 cells assessed as cell growth at 0.01 uM incubated for 48 hrs by sulforhodamine B assay relative to control; settings: KM12, 48 h, read-out: Activity
SK-MEL-5 = assay: Growth inhibition of human SK-MEL-5 cells assessed as cell growth at 1 uM incubated for 48 hrs by sulforhodamine B assay relative to control; settings: SK-MEL-5, 48 h, read-out: Activity
U-251 = assay: Growth inhibition of human U251 cells assessed as cell growth at 0.1 uM incubated for 48 hrs by sulforhodamine B assay relative to control; settings: U-251, 48 h, read-out: Activity
SF-268 = assay: Growth inhibition of human SF268 cells assessed as cell growth at 100 uM incubated for 48 hrs by sulforhodamine B assay relative to control; settings: SF-268, 48 h, read-out: Activity
[11] = read-out: LC50 (the source's name)
[12] = read-out: pLC50 (the source's name) (converted)

For `c1ccc2c3c([nH]c2c1)C(c1ccc(C2NCCc4c2[nH]c2ccccc42)cc1)NCC3` (racemic), the growth at 0.1 µM (SK-MEL-28) was 96%, the growth at 0.1 µM (IGROV-1) was 92% and the growth at 0.1 µM (HT-29) was 103%. For the same compound, the growth at 1 µM (A549) was 56%, the growth at 1 µM (PC-3) was 66% and the growth at 100 µM (EKVX [1]) was 81%. The growth at 0.1 µM (EKVX [2]) was 90%, the growth at 0.01 µM (NCI-H23) was 95% and the CC50 (DU-145; [11]) was 5.16 µM. It also gave a GI50 (DU-145; read-out: pGI50 (converted)) of 0.741 µM, a CC50 (DU-145; [12]) of 5.13 µM and a TGI (DU-145) of 2.14 µM. The growth at 0.1 µM (LOX IMVI) was 91%, the growth at 0.1 µM (NCI-H460 [3]) was 106% and the growth at 100 µM (UACC-62) was 93%. For the same compound, the GI50 (COLO 205; read-out: GI50) was 2.04 µM, the CC50 (COLO 205; [11]) was 1.2 µM and the TGI (COLO 205; read-out: TGI) was 4.59 µM. For the same compound, the GI50 (COLO 205; read-out: pGI50 (converted)) was 0.204 µM, the CC50 (COLO 205; [12]) was 1.2 µM and the TGI (COLO 205; read-out: pTGI (converted)) was 0.457 µM. For the same compound, the growth at 0.01 µM (MDA-MB-231) was 97%, the growth at 0.01 µM (MDA-MB-435 [4]) was 95% and the growth at 0.01 µM (SK-OV-3) was 91%. The growth at 0.1 µM (TK-10) was 96%, the growth at 0.01 µM (M14) was 92% and the GI50 (SNB-19; read-out: GI50) was 1.73 µM. It also gave a CC50 (SNB-19; [11]) of 7.25 µM, a TGI (SNB-19; read-out: TGI) of 3.54 µM and a GI50 (SNB-19; read-out: pGI50 (converted)) of 1.74 µM. For the same compound, the CC50 (SNB-19; [12]) was 7.24 µM, the TGI (SNB-19; read-out: pTGI (converted)) was 3.55 µM and the growth at 100 µM (NCI-H460 [5]) was 85%. The growth at 100 µM (KM12 [6]) was 88%, the growth at 0.1 µM (OVCAR-5) was 93% and the growth at 100 µM (A498 [7]) was -85%. The growth at 0.01 µM (A498 [8]) was 73%, the CC50 (MDA-MB-435 [9]; [11]) was 3.75 µM and the GI50 (MDA-MB-435 [9]; read-out: pGI50 (converted)) was 0.363 µM. The CC50 (MDA-MB-435 [9]; [12]) was 3.72 µM, the TGI (MDA-MB-435 [9]; read-out: pTGI (converted)) was 1.26 µM and the growth at 1 µM (HCC 2998) was 10%. The growth at 0.1 µM (HCT-15) was 95%, the growth at 0.01 µM (KM12 [10]) was 101% and the growth at 1 µM (SK-MEL-5) was 94%. The growth at 0.1 µM (U-251) was 97% and the growth at 100 µM (SF-268) was 83%.
`c1ccc2[nH]c(-c3ccc(-c4nccc5c4[nH]c4ccccc45)cc3)nc2c1` showed a growth at 0.1 µM (SK-MEL-28) of 98%, a growth at 0.1 µM (IGROV-1) of 99% and a growth at 0.1 µM (HT-29) of 98%. For the same compound, the growth at 1 µM (A549) was 96%, the growth at 1 µM (PC-3) was 95% and the growth at 100 µM (EKVX [1]) was 44%. It also gave a growth at 0.1 µM (EKVX [2]) of 96%, a growth at 0.01 µM (NCI-H23) of 95% and a GI50 (DU-145; read-out: GI50) of 4.02 µM. For the same compound, the CC50 (DU-145; [11]) was 5.74 µM, the GI50 (DU-145; read-out: pGI50 (converted)) was 3.98 µM and the CC50 (DU-145; [12]) was 57.5 µM. It also gave a TGI (DU-145) of 16.2 µM, a growth at 0.1 µM (LOX IMVI) of 92% and a growth at 0.1 µM (NCI-H460 [3]) of 110%. The growth at 100 µM (UACC-62) was 57%, the GI50 (COLO 205; read-out: GI50) was 2.32 µM and the CC50 (COLO 205; [11]) was 4.35 µM. For the same compound, the TGI (COLO 205; read-out: TGI) was 6.22 µM, the GI50 (COLO 205; read-out: pGI50 (converted)) was 2.34 µM and the CC50 (COLO 205; [12]) was 43.7 µM. The TGI (COLO 205; read-out: pTGI (converted)) was 6.17 µM, the growth at 0.01 µM (MDA-MB-231) was 90% and the growth at 0.01 µM (MDA-MB-435 [4]) was 93%. It also gave a growth at 0.01 µM (SK-OV-3) of 93%, a growth at 0.1 µM (TK-10) of 94% and a growth at 0.01 µM (M14) of 93%. It also gave a GI50 (SNB-19; read-out: GI50) of 4.21 µM, a CC50 (SNB-19; [11]) of over 1 µM and a GI50 (SNB-19; read-out: pGI50 (converted)) of 4.17 µM. The CC50 (SNB-19; [12]) was over 100 µM, the TGI (SNB-19; read-out: pTGI (converted)) was 30.2 µM and the growth at 100 µM (NCI-H460 [5]) was 38%. It also gave a growth at 100 µM (KM12 [6]) of 76%, a growth at 0.1 µM (OVCAR-5) of 90% and a growth at 100 µM (A498 [7]) of 85%. The growth at 0.01 µM (A498 [8]) was 96%, the GI50 (MDA-MB-435 [9]; read-out: GI50) was 1.92 µM and the CC50 (MDA-MB-435 [9]; [11]) was 9.51 µM. It also gave a TGI (MDA-MB-435 [9]; read-out: TGI) of 4.27 µM, a GI50 (MDA-MB-435 [9]; read-out: pGI50 (converted)) of 1.91 µM and a CC50 (MDA-MB-435 [9]; [12]) of 9.55 µM. The TGI (MDA-MB-435 [9]; read-out: pTGI (converted)) was 4.27 µM, the growth at 1 µM (HCC 2998) was 96% and the growth at 0.1 µM (HCT-15) was 97%. For the same compound, the growth at 0.01 µM (KM12 [10]) was 95%, the growth at 1 µM (SK-MEL-5) was 94% and the growth at 0.1 µM (U-251) was 104%. For the same compound, the growth at 100 µM (SF-268) was 52%.
